ChEMBL document CHEMBL1772949, “Replacement of the hydrophobic part of 9-cis-retinoic acid with cyclic terpenoid moiety results in RXR-selective agonistic activity” (Bioorg Med Chem, 2011)

Legend:
[1] = target: T1, Retinoic acid receptor beta (Homo sapiens) (UniProt P10826); experiment: Agonist activity at human RARbeta expressed in human MG63 cells co-transfected with RARE3-SV40-Luc assessed as transcriptional efficacy at 10^-6 M after 2 days by luciferase reporter gene assay realtive to 9-cis-retinoic acid; assay type: functional, cell-based; details: MG-63
T1 sequence (whole entry): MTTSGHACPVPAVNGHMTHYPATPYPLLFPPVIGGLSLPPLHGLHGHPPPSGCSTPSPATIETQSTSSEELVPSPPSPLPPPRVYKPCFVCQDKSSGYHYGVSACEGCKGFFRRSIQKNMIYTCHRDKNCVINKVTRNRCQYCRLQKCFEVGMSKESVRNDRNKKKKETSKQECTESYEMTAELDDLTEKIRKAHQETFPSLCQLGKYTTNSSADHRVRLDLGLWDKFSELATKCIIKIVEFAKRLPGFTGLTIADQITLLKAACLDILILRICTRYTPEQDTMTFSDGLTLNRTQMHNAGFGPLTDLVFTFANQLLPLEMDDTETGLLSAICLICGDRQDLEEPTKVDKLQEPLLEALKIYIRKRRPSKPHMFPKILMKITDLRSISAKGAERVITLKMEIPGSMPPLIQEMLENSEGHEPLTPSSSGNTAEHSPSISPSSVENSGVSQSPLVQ

[2] = target: T2, Cellular retinoic acid-binding protein 2 (Rattus norvegicus) (UniProt P51673); experiment: Agonist activity at rat CRABP2 expressed in human MG63 cells co-transfected with RXRE-SV40-Luc assessed as transcriptional efficacy at 10^-6 M after 2 days by luciferase reporter gene assay realtive to 9-cis-retinoic acid; assay type: functional, cell-based; details: MG-63
T2 sequence (whole entry): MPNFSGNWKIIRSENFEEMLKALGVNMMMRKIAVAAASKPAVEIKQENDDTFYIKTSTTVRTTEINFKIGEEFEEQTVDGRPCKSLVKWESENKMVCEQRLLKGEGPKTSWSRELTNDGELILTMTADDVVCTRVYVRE

SMILES	Ratio [1]	Ratio [2]
C/C(=C/C=C/C(C)=C/C(=O)O)C1=CC(C)(C)[C@@]23CC[C@@H](C2)C(C)(C)C3=C1	0.98	0.71
C=C(C)[C@@H]1CC[C@@H](C)C=C1/C=C/C(C)=C\C=C\C(C)=C\C(=O)O	0.35	1.07
CC(=C/C=C/C(C)=C/C(=O)O)/C=C/C1=C[C@H]2C[C@@H]([C@@H]1C)C2(C)C	1.48	0.52
CC(=C/C=C/C(C)=C/C(=O)O)/C=C/C1=CC2CC[C@]1(C)C2(C)C (single isomer, unassigned)	1.99	0.66
C/C(=C/C=C/C(C)=C/C(=O)O)C1=C[C@H](C)CC[C@H]1C(C)C	0.14	0.37
CC(=C/C=C/C(C)=C/C(=O)O)/C=C/C1=CC[C@H]2C[C@@H]1C2(C)C	1.92	2.42
CC(=C/C=C/C(C)=C/C(=O)O)/C=C/C1=C[C@@H](C)CC[C@@H]1C(C)C	0.38	1.37
CC(=C/C=C/C(C)=C/C(=O)O)/C=C/C1=C[C@]2(C(C)C)C[C@@H]2[C@H]1C	1.03	2.52
C/C(=C/C=C/C(C)=C/C(=O)O)C1=C[C@H]2CC[C@]1(C)C2(C)C	0.04	0.18
CC(C)=C1CC[C@H](C)C=C1/C=C/C(C)=C\C=C\C(C)=C\C(=O)O	0.32	2.06
CC(=C/C=C/C(C)=C/C(=O)O)/C=C/C1=C[C@H](C)CC[C@H]1C(C)C	0.25	1.12
CC(C)=C1CC[C@@H](C)C=C1/C=C/C(C)=C\C=C\C(C)=C\C(=O)O	0.5	1.5
C=C(C)[C@@H]1CCC2=CC(\C(C)=C/C=C/C(C)=C/C(=O)O)=CC[C@]2(C)[C@H]1C	0.1	0.23
C=C(C)[C@H]1CC[C@H](C)C=C1/C=C/C(C)=C\C=C\C(C)=C\C(=O)O	1.33	1.76
CC(=C/C=C/C(C)=C/C(=O)O)/C=C/C1=C[C@@H]2CC[C@@]1(C)C2(C)C	1.36	2.34
CC(=C/C=C/C(C)=C/C(=O)O)/C=C/C1=C[C@@H]2C[C@H]([C@H]1C)C2(C)C	0.89	1.3
